Source: PubChem BioAssay AID270 (DTP/NCI, 2004)
Several values for one entry are separate records, joined by “and”; a condition that tells them apart may be missing. Equal entries are not always repeated. Records with an inconclusive call do not appear.

Tested on: BDF1 mice, s.c. Lewis lung carcinoma, T/C %
Test: NCI In Vivo Anticancer Drug Screen. Data for tumor model Lewis Lung Carcinoma (subcutaneous) in B6D2F1 (BDF1) mice
In short: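 Readout: survival or tumor size, expressed as treated (T) over vehicle control (C). Transplantable tumor implanted in mice; compound given to the treated group.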

**Q.** Which T/C (endpoint: mean tumor weight, dose: 40.0 mg/kg/injection, schedule: Q01DX011 (ip), vehicle: other, higher = larger tumour) does the source give for `O=C1CN=C(c2ccc[nH]2)c2cc(Cl)ccc2N1` here?
**A.** 112 % of control

**Q.** And the T/C (endpoint: mean tumor weight, dose: 120.0 mg/kg/injection, schedule: Q01DX011 (ip), vehicle: other, higher = larger tumour)?
**A.** 73 % of control and 90 % of control

**Q.** What does the source list for `Nc1nc(=S)c2[nH]c(N=Nc3ccc(S(=O)(=O)Nc4ncccn4)cc3)nc2[nH]1`?
**A.** T/C (endpoint: median survival time, dose: 0.78 mg/kg/injection, schedule: Q01DX009 (ip), vehicle: Klucel (hydroxypropylcellulose) (HPC), higher = longer survival): 99 % of control; T/C (endpoint: median survival time, dose: 1.56 mg/kg/injection, schedule: Q01DX009 (ip), vehicle: Klucel (hydroxypropylcellulose) (HPC), higher = longer survival): 101 % of control; T/C (endpoint: median survival time, dose: 3.12 mg/kg/injection, schedule: Q01DX009 (ip), vehicle: Klucel (hydroxypropylcellulose) (HPC), higher = longer survival): 95 % of control; T/C (endpoint: median survival time, dose: 6.25 mg/kg/injection, schedule: Q01DX009 (ip), vehicle: Klucel (hydroxypropylcellulose) (HPC), higher = longer survival): 105 % of control

**Q.** With `CN(CC(=O)O)C(=N)N` as the compound, how does the T/C (endpoint: mean tumor weight, dose: 250.0 mg/kg/injection, schedule: Q01DX011 (ip), vehicle: saline, higher = larger tumour) read?
**A.** 57 % of control

**Q.** What about the T/C (endpoint: mean tumor weight, dose: 500.0 mg/kg/injection, schedule: Q01DX011 (ip), vehicle: saline, higher = larger tumour) of the same compound?
**A.** 53 % of control

**Q.** What about the T/C (endpoint: mean tumor weight, dose: 1000.0 mg/kg/injection, schedule: Q01DX011 (ip), vehicle: saline, higher = larger tumour) of the same compound?
**A.** 67 % of control

**Q.** What does the source list for `CC(C)CNc1ccc(S(=O)(=O)c2ccc(NCC(C)C)c([N+](=O)[O-])c2)cc1[N+](=O)[O-]`?
**A.** T/C (endpoint: median survival time, dose: 6.25 mg/kg/injection, schedule: Q01DX009 (ip), vehicle: saline with Tween-80, higher = longer survival): 110 % of control; T/C (endpoint: median survival time, dose: 12.5 mg/kg/injection, schedule: Q01DX009 (ip), vehicle: saline with Tween-80, higher = longer survival): 103 % of control; T/C (endpoint: median survival time, dose: 25.0 mg/kg/injection, schedule: Q01DX009 (ip), vehicle: saline with Tween-80, higher = longer survival): 109 % of control; T/C (endpoint: median survival time, dose: 50.0 mg/kg/injection, schedule: Q01DX009 (ip), vehicle: saline with Tween-80, higher = longer survival): 86 % of control

**Q.** With `NCC(O)c1ccc(O)c(O)c1` (centres undefined) as the compound, how does the T/C (endpoint: mean tumor weight, dose: 2.5 mg/kg/injection, schedule: Q01DX011 (ip), vehicle: saline, higher = larger tumour) read?
**A.** 105 % of control

**Q.** And the T/C (endpoint: mean tumor weight, dose: 5.0 mg/kg/injection, schedule: Q01DX011 (ip), vehicle: saline, higher = larger tumour)?
**A.** 161 % of control

**Q.** And the T/C (endpoint: mean tumor weight, dose: 10.0 mg/kg/injection, schedule: Q01DX011 (ip), vehicle: saline, higher = larger tumour)?
**A.** 63 % of control

**Q.** Which T/C (endpoint: median survival time, dose: 5.0 mg/kg/injection, schedule: Q04DX004 (ip), vehicle: Klucel (hydroxypropylcellulose) (HPC), higher = longer survival) does the source give for `O=NN(CCCl)C(=O)NC1CCS(=O)(=O)CC1` here?
**A.** 180 % of control

**Q.** What about the T/C (endpoint: median survival time, dose: 7.0 mg/kg/injection, schedule: Q04DX004 (ip), vehicle: Klucel (hydroxypropylcellulose) (HPC), higher = longer survival) of the same compound?
**A.** 231 % of control

**Q.** What about the T/C (endpoint: median survival time, dose: 7.0 mg/kg/injection, schedule: Q04DX004 (ip), vehicle: carboxymethylcellulose (CMC), higher = longer survival) of the same compound?
**A.** 121 % of control and 345 % of control

**Q.** What about the T/C (endpoint: median survival time, dose: 8.5 mg/kg/injection, schedule: Q04DX004 (ip), vehicle: carboxymethylcellulose (CMC), higher = longer survival) of the same compound?
**A.** 109 % of control

**Q.** And the T/C (endpoint: median survival time, dose: 8.5 mg/kg/injection, schedule: Q07DX002 (ip), vehicle: carboxymethylcellulose (CMC), higher = longer survival)?
**A.** 218 % of control

**Q.** What about the T/C (endpoint: median survival time, dose: 10.0 mg/kg/injection, schedule: Q04DX004 (ip), vehicle: carboxymethylcellulose (CMC), higher = longer survival) of the same compound?
**A.** 123 % of control

**Q.** What about the T/C (endpoint: median survival time, dose: 11.0 mg/kg/injection, schedule: Q07DX002 (ip), vehicle: carboxymethylcellulose (CMC), higher = longer survival) of the same compound?
**A.** 381 % of control

**Q.** And the T/C (endpoint: median survival time, dose: 14.0 mg/kg/injection, schedule: Q07DX002 (ip), vehicle: carboxymethylcellulose (CMC), higher = longer survival)?
**A.** 200 % of control

**Q.** For `C=C(C)C(=O)O[C@H]1CC2=C[C@@H](C[C@@]3(C)O[C@@H]3[C@H]3OC(=O)C(=C)[C@@H]31)OC2=O`, which T/C (endpoint: mean tumor weight, dose: 2.0 mg/kg/injection, schedule: Q01DX011 (ip), vehicle: saline, higher = larger tumour) is on record?
**A.** 171 % of control

**Q.** What about the T/C (endpoint: mean tumor weight, dose: 4.0 mg/kg/injection, schedule: Q01DX011 (ip), vehicle: saline, higher = larger tumour) of the same compound?
**A.** 118 % of control

**Q.** And the T/C (endpoint: mean tumor weight, dose: 8.0 mg/kg/injection, schedule: Q01DX011 (ip), vehicle: saline, higher = larger tumour)?
**A.** 107 % of control

**Q.** How did the T/C (endpoint: mean tumor weight, dose: 104.0 mg/kg/injection, schedule: Q01DX011 (ip), vehicle: other, higher = larger tumour) turn out when `CCOC(=O)c1c[nH]c2c(Cl)c(C)ccc2c1=O` was run?
**A.** 106 % of control

**Q.** And the T/C (endpoint: mean tumor weight, dose: 155.0 mg/kg/injection, schedule: Q01DX011 (ip), vehicle: other, higher = larger tumour)?
**A.** 111 % of control

**Q.** What about the T/C (endpoint: mean tumor weight, dose: 350.0 mg/kg/injection, schedule: Q01DX011 (ip), vehicle: other, higher = larger tumour) of the same compound?
**A.** 75 % of control

**Q.** What does the source list for `OCC1=CCN2CC[C@@H](O)[C@@H]12`?
**A.** T/C (endpoint: mean tumor weight, dose: 25.0 mg/kg/injection, schedule: Q01DX011 (ip), vehicle: carboxymethylcellulose (CMC), higher = larger tumour): 122 % of control; T/C (endpoint: mean tumor weight, dose: 50.0 mg/kg/injection, schedule: Q01DX011 (ip), vehicle: carboxymethylcellulose (CMC), higher = larger tumour): 117 % of control; T/C (endpoint: mean tumor weight, dose: 100.0 mg/kg/injection, schedule: Q01DX011 (ip), vehicle: carboxymethylcellulose (CMC), higher = larger tumour): 111 % of control; T/C (endpoint: mean tumor weight, dose: 200.0 mg/kg/injection, schedule: Q01DX011 (ip), vehicle: carboxymethylcellulose (CMC), higher = larger tumour): 106 % of control

**Q.** For `[Cl][Hg][c]1ccc2ccccc2c1`, which T/C (endpoint: median survival time, dose: 3.0 mg/kg/injection, schedule: Q01DX009 (ip), vehicle: gum acacia, higher = longer survival) is on record?
**A.** 89 % of control

**Q.** What about the T/C (endpoint: median survival time, dose: 6.0 mg/kg/injection, schedule: Q01DX009 (ip), vehicle: gum acacia, higher = longer survival) of the same compound?
**A.** 108 % of control

**Q.** `Cc1cccc(NC(=O)N(CCCl)N=O)c1` was tested. Which T/C (endpoint: median survival time, dose: 0.38 mg/kg/injection, schedule: Q01DX009 (ip), vehicle: saline with Tween-80, higher = longer survival) did it give?
**A.** 96 % of control

**Q.** And the T/C (endpoint: median survival time, dose: 0.75 mg/kg/injection, schedule: Q01DX009 (ip), vehicle: saline with Tween-80, higher = longer survival)?
**A.** 102 % of control

**Q.** What about the T/C (endpoint: median survival time, dose: 3.0 mg/kg/injection, schedule: Q01DX009 (ip), vehicle: saline with Tween-80, higher = longer survival) of the same compound?
**A.** 92 % of control
